pIC50: −log10 of the molar value.
Key:
Type in all cases: cell-based
[1] = In vitro cytotoxicity assay in HepG2 cells, CCK-8 method; settings: human
Protocol: In vitro cytotoxicity assay for the compounds disclosed herein was performed in HepG2 cells using the CCK-8 method. HepG2 cells (Beina Bio) in the logarithmic growth phase were collected, the concentration of cell suspension was adjusted, and then the cells were plated on a 96-well cell culture plate at 50,000 cells/well. The cells were then incubated overnight in a cell incubator (5% CO2, 37° C.), and after 80-90% cell confluence was achieved, test compounds or vehicle (DMSO) at various concentration gradients were added after medium change. The resulting mixture was incubated in the cell incubator (5% CO2, 37° C.) for 48 h. After the treatment, the medium in the plate was discarded. The plate was washed twice with PBS, added with CCK-8 working solution (Beyotime) at 100 μL per well, and then incubated at 37° C. for 1.5 h away from the light. Absorbance at OD450 nm was measured for each well on a microplate reader, and CC50 value of each compound was analyzed and calculated.

[2] = target: hLPAR1 (human lysophosphatidic acid receptor 1) (Homo sapiens, UniProt Q92633); experiment: FLIPR assay of intracellular calcium increase induced by activation of hLPAR1 expressed in CHO-K1 cells; settings: CHO-K1 cells expressing hLPAR1, agonist oleoyl-L-α-lysophosphatidic acid 1 μM; read-out: LPAR1 IC50
Chain of hLPAR1 (human lysophosphatidic acid receptor 1) (Q92633 whole entry): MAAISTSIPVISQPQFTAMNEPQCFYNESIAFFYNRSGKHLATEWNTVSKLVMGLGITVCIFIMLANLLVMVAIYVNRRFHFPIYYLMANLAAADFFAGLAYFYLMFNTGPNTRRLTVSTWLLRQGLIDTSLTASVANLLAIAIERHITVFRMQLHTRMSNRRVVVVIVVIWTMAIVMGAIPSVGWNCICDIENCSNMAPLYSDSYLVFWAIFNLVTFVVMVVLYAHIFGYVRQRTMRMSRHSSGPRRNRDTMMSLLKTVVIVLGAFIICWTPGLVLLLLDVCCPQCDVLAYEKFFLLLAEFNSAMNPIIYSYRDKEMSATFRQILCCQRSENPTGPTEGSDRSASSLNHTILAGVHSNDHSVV
Protocol: The antagonist property of the compounds disclosed herein was determined using the FLIPR (fluorescence imaging plate reader) method, wherein the compounds are inhibitors for the intracellular calcium increase induced by activation of hLPAR1 (human lysophosphatidic acid receptor 1, accession No. NM_001401.4) expressed in CHO-K1 cells (Chinese hamster ovary cells K1, ATCC).
Cells at 250,000 cells/mL were seeded into a 96-well plate (25,000 cells/well) 18-24 h prior to the FLIPR experiment and then incubated overnight in a cell incubator. […] Each well was added with 75 μL of […] Fluo-4 AM fluorescent dye (Thermo, F14202) and then the cells were subjected to dye-loading incubation at 37° C. for 1.0 h. The 96-well plate was then washed once with buffer, added with a buffer containing a test compound or a vehicle at 50 μL per well and then incubated for 30 min at room temperature. […] An agonist (oleoyl-L-α-lysophosphatidic acid sodium salt (Sigma, L7260)) at a final concentration of 1 μM or a vehicle (ultrapure water) was then added at 50 μL/well, fluorescence values were measured for 2 min at 1-second intervals, and finally the output fluorescence counts were analyzed.

[3] = test system: A2058 (human melanoma cells); experiment: A2058 cell scratch (migration) assay with LPA; settings: 10 μM LPA, scratch area at 24 h
Protocol: The activity of the compounds disclosed herein at the cell level in vitro is evaluated by A2058 (human melanoma cells, Beina Bio, BNCC341099) cell scratch assay. The inhibitory activity of the compounds against LPAR1 can be reflected by inhibition of cell scratch healing.
After the cell confluence reached 80%, the cell culture plate was taken out and the original medium was discarded. Serum-free medium was then added, and the cells were starved overnight in an incubator (37° C., 5% CO2). The cell culture plate was then taken out, and cell scratches were made along the diameter of the wells using a 200 μL pipette tip. The cell culture plate was then added with 500 μL of serum-free medium and then shaken gently to wash away the residual cells on the scratched surface, and this was repeated twice. The medium was discarded and 500 μL of 1% FBS medium containing the compound was then added, and the mixture was incubated at 37° C. for 30 min. […] Olympus CKX53 was used to observe the scratches, and MShot image analysis system was used to take pictures and measure the scratch area at 0 h. The plate was incubated in the incubator under the conditions of 37° C. and 5% CO2. 24 h later, the scratches were observed again with Olympus CKX53, and MShot image analysis system was used to take pictures and measure the scratch area at 24 h. Cell migration inhibition rate was calculated according to the following formula: […]

| pIC50 [2] | Compound | CC50 at 48 h [1] [µM] | Cell migration inhibition rate (%) [3] |
| --- | --- | --- | --- |
| 5.00 to 6.52 | CN(C(=O)OCc1c(-c2ccc(O[C@H]3CCC[C@H](C(=O)O)C3)cc2)ncn1C)C1CCCC1 (racemic) [Compound 12, (+/−)-(1S,3S)-3-(4-(5-(((cyclopentyl(methyl)carbamoyl)oxy)methyl)-1-methyl-1H-imidazol-4-yl)phenoxy)cyclohexane-1-carboxylate] | > 200 | C (C: 0-30%) |
| 6.52 to 7.30 | Cc1nc(-c2ncn(C)c2COC(=O)N(C)C2CCCC2)ccc1O[C@H]1CCC[C@H](C(=O)O)C1 (racemic) [Compound 17, (+/−)-(1S,3S)-3-((6-(5-(((cyclopentyl(methyl)carbamoyl)oxy)methyl)-1-methyl-1H-imidazol-4-yl)-2-methylpyridin-3-yl)oxy)cyclohexane-1-carboxylic Acid] | > 200 | C (C: 0-30%) |
| 5.00 to 6.52 | CN(C(=O)OCc1ccccc1-c1ccc(O[C@H]2CCC[C@H](C(=O)O)C2)cc1)C1CCCC1 (racemic) [Compound 21, (+/−)-(1S,3S)-3-((2′-(((cyclopentyl(methyl)carbamoyl)oxy)methyl)-[1,1′-biphenyl]-4-yl)oxy)cyclohexane-1-carboxylate] | > 200 | C (C: 0-30%) |
| 5.00 to 6.52 | CN(Cc1ccccc1)C(=O)OCc1nc2cc(O[C@H]3CCC[C@H](C(=O)O)C3)ccc2n1C (racemic) [Compound 22] | > 200 | C (C: 0-30%) |
| 5.00 to 6.52 | CN(Cc1ccccc1)C(=O)OCc1nc2c(O[C@H]3CCC[C@H](C(=O)O)C3)cccc2s1 (racemic) [Compound 23, (+/−)-(1S,3S)-3-((2-(((benzyl(methyl)carbamoyl)oxy)methyl)benzo[d]thiazole-4-yl)oxy)cyclohexane-1-carboxylic Acid] | > 200 | C (C: 0-30%) |
| 5.00 to 6.52 | CN(Cc1ccccc1)C(=O)OCc1c(-c2ccc(O[C@H]3CCC[C@H](C(=O)O)C3)cc2)ncn1C (racemic) [Compound 24] | > 200 | C (C: 0-30%) |
| 5.00 to 6.52 | CN(C(=O)OCc1ocnc1-c1ccc(O[C@H]2CCC[C@H](C(=O)O)C2)c(C(F)(F)F)n1)C1CCCC1 (racemic) [Compound 25] | > 200 | B (B: 30-50%) |
| 5.00 to 6.52 | Cc1nc(-c2ncoc2COC(=O)N(C)C2CCCC2)ccc1O[C@H]1CCC[C@H](C(=O)O)C1 (racemic) [Compound 26] | > 200 | C (C: 0-30%) |
| > 7.30 | Cc1n[nH]c(-c2ccc(O[C@H]3CCC[C@H](C(=O)O)C3)cc2)c1COC(=O)N(C)C1CCCC1 (racemic) [Compound 27] | > 200 | B (B: 30-50%) |
| > 7.30 | Cc1snc(-c2ccc(O[C@H]3CCC[C@H](C(=O)O)C3)cc2)c1COC(=O)N(C)C1CCCC1 (racemic) [Compound 29, (+/−)-(1S,3S)-3-(4-(4-(((cyclopentyl(methyl)carbamoyl)oxy)methyl)-5-methylisothiazol-3-yl)phenoxy)cyclohexane-1-carboxylic Acid] | > 200 | B (B: 30-50%) |
| > 7.30 | Cc1cnn(-c2ccc(O[C@H]3CCC[C@H](C(=O)O)C3)cc2)c1COC(=O)N(C)C1CCCC1 (racemic) [Compound 30, (+/−)-(1S,3S)-3-(4-(5-(((cyclopentyl(methyl)carbamoyl)oxy)methyl)-4-methyl-1H-pyrazol-1-yl)phenoxy)cyclohexanoic Acid] | > 200 | B (B: 30-50%) |
| > 7.30 | Cc1ccn(-c2ccc(O[C@H]3CCC[C@H](C(=O)O)C3)cc2)c1COC(=O)N(C)C1CCCC1 (racemic) [Compound 31] | > 200 | B (B: 30-50%) |
| 6.52 to 7.30 | CN(C(=O)OCc1c(-c2ccc(O[C@H]3CCC[C@H](C(=O)O)C3)c(C(F)(F)F)n2)ncn1C)C1CCCC1 (racemic) [Compound 32] | > 200 | B (B: 30-50%) |
| > 7.30 | Cc1nc(-c2c(C(F)(F)F)nn(C)c2COC(=O)N(C)C2CCCC2)ccc1O[C@H]1CCC[C@H](C(=O)O)C1 (racemic) [Compound 33] | > 200 | B (B: 30-50%) |
| 6.52 to 7.30 | CN(C(=O)OCc1c(-c2ccc(O[C@H]3CCC[C@H](C(=O)O)C3)c(F)c2)ncn1C)C1CCCC1 (racemic) [Compound 34, (+/−)-(1S,3S)-3-(4-(5-(((cyclopentyl(methyl)carbamoyl)oxy)methyl)-1-methyl-1H-imidazol-4-yl)-2-fluorophenoxy)cyclohexane-1-carboxylic Acid] | > 200 | B (B: 30-50%) |
| > 7.30 | Cc1nc(-c2noc(C)c2COC(=O)N(C)C2CCCC2)ccc1O[C@H]1CCC[C@H](C(=O)O)C1 (racemic) [Compound 38] | > 200 | A (A: 50-70%) |
| > 7.30 | Cc1nc(-c2nsc(C)c2COC(=O)N(C)C2CCCC2)ccc1O[C@H]1CCC[C@H](C(=O)O)C1 (racemic) [Compound 39] | > 200 | B (B: 30-50%) |
| > 7.30 | Cc1nc(-c2snc(C)c2COC(=O)N(C)C2CCCC2)ccc1O[C@H]1CCC[C@H](C(=O)O)C1 (racemic) [Compound 40] | > 200 | A (A: 50-70%) |
| > 7.30 | Cc1nc(-c2c[nH]c(C)c2COC(=O)N(C)C2CCCC2)ccc1O[C@H]1CCC[C@H](C(=O)O)C1 (racemic) [Compound 41] | > 200 | B (B: 30-50%) |
| > 7.30 | Cc1nc(-c2coc(C)c2COC(=O)N(C)C2CCCC2)ccc1O[C@H]1CCC[C@H](C(=O)O)C1 (racemic) [Compound 42] | > 200 | A (A: 50-70%) |
| > 7.30 | Cc1nc(-c2csc(C)c2COC(=O)N(C)C2CCCC2)ccc1O[C@H]1CCC[C@H](C(=O)O)C1 (racemic) [Compound 43] | > 200 | A (A: 50-70%) |
| > 7.30 | Cc1c[nH]c(-c2ccc(O[C@H]3CCC[C@H](C(=O)O)C3)c(C)n2)c1COC(=O)N(C)C1CCCC1 (racemic) [Compound 44] | > 200 | B (B: 30-50%) |
| > 7.30 | Cc1coc(-c2ccc(O[C@H]3CCC[C@H](C(=O)O)C3)c(C)n2)c1COC(=O)N(C)C1CCCC1 (racemic) [Compound 45] | > 200 | A (A: 50-70%) |
| > 7.30 | Cc1csc(-c2ccc(O[C@H]3CCC[C@H](C(=O)O)C3)c(C)n2)c1COC(=O)N(C)C1CCCC1 (racemic) [Compound 46] | > 200 | A (A: 50-70%) |
| > 7.30 | Cc1nc(-c2cnnc(COC(=O)N(C)C3CCCC3)c2)ccc1O[C@H]1CCC[C@H](C(=O)O)C1 (racemic) [Compound 47] | > 200 | B (B: 30-50%) |
| > 7.30 | Cc1nnc(-c2ccc(O[C@H]3CCC[C@H](C(=O)O)C3)c(C)n2)cc1COC(=O)N(C)C1CCCC1 (racemic) [Compound 49] | > 200 | B (B: 30-50%) |
| > 7.30 | Cc1nc(-c2ncnc(C)c2COC(=O)N(C)C2CCCC2)ccc1O[C@H]1CCC[C@H](C(=O)O)C1 (racemic) [Compound 51] | > 200 | A (A: 50-70%) |
